Source: patent US7611863B2, “Selective staining of biomembranes using voltage-sensitive dyes” (Max-Planck-Gesellschaft zur Foerderung der Wissenschaften …, priority 2004, dated 2009)

How the values were obtained:
[1] = Dye-lipid binding by fluorescence lipid titration; type: physicochemical; details: for KA/KP ratio of binding constants of alcohol and phosphate: liposome suspensions
Method: Dye-lipid binding. The binding of the dyes to lipid membranes was determined by fluorescence lipid titration^21 with large unilamellar vesicles (LUVs) made of 1-palmitoyl-2-oleoyl-phosphatidylcholine (POPC). The purity of the lipids was checked by 2-dimensional TLC^22. The vesicles were made by extrusion^23 in Tris-NaCl buffer (20 mM Tris, 100 mM NaCl, pH 8.1), using an extrusion apparatus and polycarbonate filters with 100 nm pore size (both Avestin Europe, Mannheim, Germany). Vesicle size was determined by quasielastic light scattering using an argon ion laser (Spectra-Physics, Darmstadt, Germany), a photomultiplier (Brookhaven Instruments, Vienna, Austria) and a correlator (ALV-5000, Langen, Germany). The lipid concentration was determined by a chromogenic enzyme assay (Biomerieux, Marcy I'Etoile, France). The standard deviation of three concentration measurements for every vesicle preparation was always below 4%. Vesicles were stored under argon at 4° C. in 15 ml Falcon Centrifuge Tubes (BD Labware Europe, Le Pont de Claix, France) and used within three days.
To measure dye binding constants, we prepared 1 mM solutions of the dyes 1-3 by ultrasonication in Ethanol (1) or Tris-NaCl buffer (2,3). […] In the same buffer, suspensions of POPC vesicles with concentrations ranging from 100 nM to 10 mM were prepared by dilution of stock solutions. Dye and lipid were pre-thermostatted to 25° C. […] The fluorescence emission recorded at 600 nm with excitation at 488 nm was used for the evaluation of the partition coefficients.
Dye binding to lipid. When styryl hemicyanines bind to lipid bilayers, their quantum yield of fluorescence is enhanced. […] We take advantage of that effect to examine the binding of Di-4-ASPP phosphate and Di-4-ASPP alcohol to lipid membranes by fluorescence titration^21. For comparison Di-4-ASPBS was also included in the investigation.
Dispersions of large lipid vesicles (Ø≈100 nm) were made from palmitoyl-oleoyl-phosphatidylcholine (POPC) with lipid concentrations ranging over five orders of magnitude. […] The fluorescence intensity was enhanced with increasing concentration of lipid for all three dyes. The enhancement was shifted to higher lipid concentrations in the order Di-4-ASPP alcohol, Di-4-ASPBS and Di-4-ASPP phosphate.
Binding. The dyes Di-10-phosphato-ASPBS (Di-10P-ASPBS) and Di-12-phosphato-ASPBS (Di-12P-ASPBS) as well as the corresponding products after enzymatic hydrolysis Di-10-hydroxy-ASPBS (Di-10A-ASPBS) and Di-12-hydroxy-ASPBS (Di-12A-ASPBS) were synthesized by organic chemical methods. Their binding to lipid membranes was tested by fluorescence lipid titration (cf. page 15, section dye binding to lipid). The binding constants amounted to 27 M^−1 (Di-10P-ASPBS), 250,000 M^−1 (Di-10A-ASPBS), 2100 M^−1 (Di-12P-ASPBS) and 3,000,000 M^−1 (Di-12P-ASPBS) (FIGS. 14 and 15 (center and right hand side)). The difference in binding constants between dye alcohol and dye phosphates (or dye precursors) therefore amounted to a factor of 10,000 for the pair Di-10P-ASPBS/Di-10A-ASPBS and to a factor of 1000 for the pair Di-12P-ASPBS/Di-12A-ASPBS. The binding curve for the more lipophilic pair Di-12P-ASPBS/Di-12A-ASPBS is shifted to […] lipid concentrations.

[2] = test system: HEK 293 cells expressing fusion protein of plasma membrane anchor and PLAP; assay: Staining of HEK 293 cells through overexpressed membrane-bound phosphatase; type: cell-based
Excerpt: FIG. 13A to C: Staining of transfected HEK 293 cells with a voltage sensitive dye by activation of binding through an overexpressed, membrane-bound phosphatase. HEK 293 cells were cotransfected with a vector coding for GFP and a vector coding for a fusion protein of a plasma membrane anchor and phosphatase from the human placenta. A. fluorescence image showing the GFP fluoresence of a transfected cell (excitation filter 450/50 nm, emission filter 510 nm longpass; dichroic mirror: 505 nm). B. The voltage sensitive fluorescent dye Di-8-phosphato-ASPBS (cf. FIG. 11, bottom) was added to the incubation medium. […] C. […] The images shown are optimized for contrast and intensity.
(§1) FIG. 16. Genetically Targeted Staining of HEK293 cells with 1 mM Di-10P-ASPBS. A mixture of stable clones either expressing the membrane-bound phosphatase construct or cytosolic GFP were cultured on the same dish. (A) From left to right: (i) Brightfield image of cells. (ii) Fluorescence image of cells showing cells expressing cytosolic GFP (excitation filter 450/50 nm, emission filter 510 nm, dichroic mirror 505 nm). (iii) Cells expressing phosphatase as obtained by subtraction of GFP expressing cells from image i. (iv) Fluorescence image of cells with filters exc. 535/50 nm, em. 610/75 nm; dichroic mirror 535 nm. The image is normalized to the same level as in row B. (v) autoleveled image iv, showing fluorescence crosstalk of GFP. (B) Enzyme induced staining of cells as measured with filter set exc. 535/50 nm, em. 610/75 nm; dichroic mirror 535 nm. The membrane fluorescence increases over time. (C). Inverted and contrast-enhanced fluorescence images corresponding to row B. (D) Difference images. The image A/iv was subtracted from the images in row B. The resulting images were inverted and contrast was enhanced.
as §1, with “17.” for “16.”, “200 nM Di-12P-ASPBS.” for “1 mM Di-10P-ASPBS.”, “difference” for “and contrast-enhanced fluorescence images corresponding to row B. (D) Difference”, “enhanced. (D) Contrast enhanced images of row C.” for “enhanced.”
Enzyme induced staining. The dye precursors Di-10P-ASPBS and Di-12P-ASPBS were used to effect enzyme induced staining on cells. To test whether the staining is selective, a mixture of two cell populations was cultured in the same dish. One of these stably expressed the phosphatase construct, while the other was stably expressing GFP as a negative marker.

Row | average binding constant K to lipid membrane ([1]; POPC vesicles, Tris-NaCl buffer pH 8.1, 25° C., dye 0.5 μM) [M⁻¹] | KA/KP ratio of binding constants of alcohol and phosphate ([1]; dye concentration 9.8 μM) | KA/KP ratio of binding constants of alcohol and phosphate ([1]; low dye concentrations) | increment of the binding energy Δ(ΔG) relative to the alcohol ([1]; −RT ln(K/KA)) [kcal/mol] | difference in binding constants between dye alcohol and dye phosphate (precursor) ([1]; pair precursor/product dye) [factor] | Compound | selectivity of staining among precursor dyes ([2]; HEK293 and MDCK cells overexpressing ArtPlasMA-PLAP, Di-8P, Di-10P, Di-12P compared) | staining intensity and confinement to phosphatase expressing cells ([2]; compared with Di-10P-ASPBS) | enzyme induced membrane staining in mixed cell populations ([2]; phosphatase clones and GFP clones in same dish, 1 mM Di-10P-ASPBS, 200 nM Di-12P-ASPBS)
1 | 1140 ± 140 | ≈ 7 | ≈ 16 | 1.63 | – | CCCCN(CCCC)c1ccc(/C=C/c2cc[n+](CCCOP(=O)([O-])O)cc2)cc1 [Di-4-ASPP phosphate] | – | – | –
2 | – | – | – | – | 1000 | Di-12-phosphato-ASPBS [Di-12P-ASPBS] | best selectivity | distinctly better | allowed enzyme induced membrane staining
